One test concerns the target MYC-AURKA interaction (Mus musculus (Mouse), UniProt P97477). Description: Proximity ligation assay (PLA) for MYC and AURKA in NMP53^−/− cells. It counts as cell-based, murine. To be noted: 24 h after treatment. Here is the method: To examine whether this MYC degradation is associated with MYC-AURKA PPI disruption, the inventors performed proximity ligation assays (PLA) in NMP53^−/− cells. For Proximity Ligation Assay (PLA), 50 000 cells were seeded on 12 mm glass slides placed in 6 well plates. On the next day, the cells were treated with the indicated compounds or the corresponding DMSO concentration for 2 h (compound 2c [N-(5-((4-(1H-pyrazole-4-yl)benzyl)amino)-2-fluorophenyl)-3-(furan-2-yl)propanamide] and compound 3a [N-(2-fluoro-5-((4-(1-methyl-1H-pyrazole-4-yl)benzyl)amino)phenyl)-3-(furan-2-yl)propanamide]) or 24 h (alisertib) and fixed for 10 min in 100% MeOH at −20° C. The glass slides were removed from the 6 well plates and the cells permeabilized with TBS+0.3% Triton X-100 for 5 min. After washing with PBS and blocking with 5% BSA in TBS+0.05% Tween for 30 min, the slides were incubated with MYC (Abeam ab32072, 1:200) and AURKA (Abcam ab13824, 1:200) specific antibodies in 1% BSA in TBS+0.05% Tween for 120 min at RT and washed 3 times with PBS for 5 min, wherein the MYC/TPX2 and AURKA specific antibodies are derived from a different species. After a 20 min pre-incubation of two PLA probes, directed against either species of the MYC/TPX2 and AURKA specific antibodies, at RT (DUO92001 and DUO92005 Sigma Aldrich, diluted 1:10 in 1% BSA in TBS+0.05% Tween), the slides were incubated with the probes for 60 min at 37° C. in a humidified chamber. The slides were washed 3 times with 1× wash buffer A (Sigma Aldrich DUO82049) for 5 min and incubated with the ligase solution (ligase diluted 1:40 in 5× ligase buffer and ddH2O, Sigma Aldrich DUO92008) for 60 min at 37° C. in a humidified chamber. […] The foci per cell were counted in a way that the cytoplasmic foci are counted to the cell with the closest nucleus (DAPI). Significance was calculated with the GraphPad Prism 8.4.0 software (GraphPad Software, La Jolla, CA) by using the nonparametric Mann Whitney test.

The next test concerns late stage HCC. Conditions: patients with late stage HCC, on average; cited from earlier work.

SMILES strings stand for the structures.

Chain of MYC-AURKA interaction (P97477 whole entry): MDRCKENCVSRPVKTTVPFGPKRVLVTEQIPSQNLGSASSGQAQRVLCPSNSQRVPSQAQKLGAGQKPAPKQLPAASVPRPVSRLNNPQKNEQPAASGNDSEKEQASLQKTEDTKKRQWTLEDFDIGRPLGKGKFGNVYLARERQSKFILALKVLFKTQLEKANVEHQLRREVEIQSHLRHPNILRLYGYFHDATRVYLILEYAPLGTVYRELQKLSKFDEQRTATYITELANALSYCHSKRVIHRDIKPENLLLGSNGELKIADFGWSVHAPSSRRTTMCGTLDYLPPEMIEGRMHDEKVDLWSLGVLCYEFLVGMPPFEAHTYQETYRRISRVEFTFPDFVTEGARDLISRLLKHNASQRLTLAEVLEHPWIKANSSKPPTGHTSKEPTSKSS

Consider `COc1cc(Nc2ncc3c(n2)-c2ccc(Cl)cc2C(c2c(F)cccc2OC)=NC3)ccc1C(=O)O` [alisertib, reference compound], for which the “reduction of the MYC-AURKA interaction compared to DMSO” value at MYC-AURKA interaction is 60%.

For the compound `CNC(=O)c1cc(Oc2ccc(NC(=O)Nc3ccc(Cl)c(C(F)(F)F)c3)cc2)ccn1` [sorafenib], the prolonged survival in the test on late stage HCC is on record as 2.8 months.
